Assay results: article PMC7966678, “GMP-compliant fully automated radiosynthesis of [^18F]FEPPA for PET/MRI imaging of regional brain TSPO expression” (EJNMMI Research, 2021)

Assays:
[1] = set-up: method as in PMID 29875332; details: cited from earlier work
[2] = target: T1, TSPO (Mus musculus, UniProt P50637); test: In vivo dynamic PET/MR whole-body biodistribution of [^18F]FEPPA in control and LPS-injected mice; set-up: species or system C57BL/6 mice
T1 construct: from tissue; host or cells: living C57BL6 mice: brain regions, heart, lung, liver, spleen, kidney, blood (in vivo PET/MR)
Method: (§1) The mice in the LPS group (6 mice for each dose) were intraperitoneally injected with a single dose of 0.625, 1.25, 2.5 or 5 mg/kg LPS (Escherichia coli, strain O111:B4; Calbiochem, San Diego, CA, USA) to induce systemic inflammation. The control group were intraperitoneally injected with 0.9% NaCl. In vivo or in vitro assessments were performed 24 h after administration of LPS.
Before PET/MR imaging acquisition, the mice were anesthetized by passive inhalation of a mixture of isoflurane and oxygen (5% isoflurane for induction and 2% for maintenance). A fiber-optic temperature probe was inserted into the rectum to monitor the core temperature of the mice, then each animal was gently positioned in the MR cradle and the MRI coil was secured around the head. A warm water blanket was positioned to maintain the core temperature of the animals, then the mice were positioned inside the scanner. The depth of anesthesia, pulse and respiration were monitored constantly during the imaging procedure; in the unlikely event that an animal regained consciousness, the scanning was immediately stopped and the animal was removed from the scanner, humanely euthanized and eliminated from the study.
(§2) The animals (n = 6 per dose of LPS; n = 6 controls) were injected with [^18F]FEPPA (10.09 ± 1.38 MBq; […]) via the tail vein. Dynamic PET images were obtained using a 7 T PETMR Inline (Bruker, Rheinstetten, Germany) for 30 min with the energy window set to 350–650 keV. Images were acquired every 1 s for 10 images, 10 s for five images, 60 s for nine images, 300 s for two images and 600 s for 1 image; a total of 27 frames were collected.
(§3) The PET images were reconstructed through three-dimensional ordered-subset expectation maximization (3D-OSEM). The regional radioactivity concentration (KBq/cc) of [^18F]FEPPA was estimated based on the mean pixel values within the volumes of interest (VOI) corresponding to MR images of various regions of the brain. Image data were decay-corrected to the injection time. The radioactivity concentration (KBq/cc) of the VOI was converted to the standard uptake value (SUV), and the mean and standard error of the mean (SEM) radiotracer accumulation values were calculated for various tissues. PET/MR data were analyzed using PMOD 4.0 software (PMOD Technologies Ltd., Zurich, Switzerland).

[3] = target: T1, TSPO; test: In vivo PET/MR brain region-specific uptake and pharmacokinetics (SUV, VT by Logan graphical analysis, AUC); set-up: species or system C57BL/6 mice; details: for Brain [^18F]FEPPA uptake vs LPS dose: 24 h after injection
Method: as §1, §2
T1 and T2 MRI were performed to determine the anatomical structure of the brain. The MRI sequences included 0.5-mm thickness coronal T2 Turbo RARE high-resolution images (TR = 3455 ms, TE = 36 ms, matrix = 256 × 256, average = 8, slice number = 30).
as §3
The Logan graphical method for reversible uptake was used to assess whether [^18F]FEPPA PET/MRI [30] could be used to detect differences in the expression of TSPO. Cardiac blood was used as the reference tissue. The slope of the linear portion of the Logan plot represents the total distribution (VT). If metabolite-corrected plasma TACs are not available, a reference region TAC, Cp(t), can be used instead of the plasma TAC. Then, the slope of the linear portion of the plot can be calculated using (Eq. 1)1 ∫0tCTissueτdr/CTissuet=K∫0tCpτdr/CTissuet+V

[4] = Stability of final product (radiochemical purity by analytical HPLC); format: physicochemical; details: 6 h after the end of synthesis; manual and automated synthesis
Method: Radiochemical and chemical purity, stability and molar activity were assessed by analytical HPLC. The molar activity of the radiotracer was quantified by measuring the radioactivity injected and deriving the concentration of FEPPA in the sample by UV detection.
The identity of the labeled compound [^18F]FEPPA was confirmed by co-injection with a non-radioactive FEPPA standard. The concentration of FEPPA in the radioactive sample was obtained from the UV-peak area ratio for the radioactive product and the standard solution. Analytical HPLC was performed on a Nova-pak C18 column (300 × 3.9 mm, 4 μm) in 50 mM (NH4)H2PO4:CH3CN (1:1) at 1 mL/min using a Waters Corporation 2695 pump with a multi-wavelength 2489 UV Detector (Waters Corporation) in series with a Bioscan FC-4000 dual BGO coincidence detector (Bioscan, Inc., Washington, DC, USA). A delay time of 12 s was observed between the two detectors.

[5] = system: TSPO; set-up: method as in PMID 18355686, PMID 24939192; details: higher affinity than [^11C]PK-11195; cited from earlier work

- Increase of [^18F]FEPPA in heart, LPS-induced group vs control ([2]; LPS 5 mg/kg, 24 h): ~ 3 folds
- Increase of [^18F]FEPPA in lung, LPS-induced group vs control ([2]; LPS 5 mg/kg, 24 h): ~ 3 folds
- Accumulated radioactivity (SUV), Blood ([2]; LPS (5 mg/kg i.p., 24 h) mice): 1.29 ± 0.128 SUV
- Accumulated radioactivity (SUV), Heart muscle ([2]; LPS (5 mg/kg i.p., 24 h) mice): 3.60 ± 0.722 SUV
- Accumulated radioactivity (SUV), Kidney ([2]; LPS (5 mg/kg i.p., 24 h) mice): 5.86 ± 0.504 SUV
- Accumulated radioactivity (SUV), Liver ([2]; LPS (5 mg/kg i.p., 24 h) mice): 1.60 ± 0.097 SUV
- Accumulated radioactivity (SUV), Spleen ([2]; LPS (5 mg/kg i.p., 24 h) mice): 0.96 ± 0.443 SUV
- Accumulated radioactivity (SUV), Whole brain ([2]; LPS (5 mg/kg i.p., 24 h) mice): 0.76 ± 0.014 SUV
- Time of peak radioactivity in heart muscle ([2]; after injection): ≤ 3 min
- Time to steady state in heart muscle and lungs ([2]; after injection of [^18F]FEPPA): 10 min
- Blood clearance kinetics ([2]; control group, after i.v. injection): biexponential
- Accumulated radioactivity (SUV), Heart muscle ([2]; control mice): 1.24 ± 0.06 SUV
- Accumulated radioactivity (SUV), Kidney ([2]; control mice): 4.80 ± 0.57 SUV
- Accumulated radioactivity (SUV), Liver ([2]; control mice): 1.48 ± 0.36 SUV
- Accumulated radioactivity (SUV), Lung ([2]; control mice): 1.38 ± 0.08 SUV
- Accumulated radioactivity (SUV), Spleen ([2]; control mice): 1.16 ± 0.32 SUV
- Accumulated radioactivity (SUV), Whole brain ([2]; control mice): 0.48 ± 0.05 SUV
- Accumulated radioactivity (SUV), Blood ([2]; control mice, 30 min post-injection i.v.): 1.29 ± 0.03 SUV
- Time of peak accumulation in the lungs ([2]; post-injection): 1 to 2 min
- Brain [^18F]FEPPA uptake vs LPS dose ([3]; 5 mg/kg LPS): significantly higher uptake
- AUC (SUV·min, 0–30 min) ratio in brain, LPS vs control ([3]; LPS 5 mg/kg, 24 h): 1.58 ± 0.09 fold
- VT (Logan graphical analysis) in brain, LPS vs control ([3]; LPS 5 mg/kg, 24 h, average of brain regions, cardiac blood as reference): 1.25 ± 0.12 fold
- Average SUV ratio for all brain regions, LPS vs control ([3]; LPS 5 mg/kg, 24 h, brain): 1.61 ± 0.1 fold
- Brain [^18F]FEPPA uptake vs LPS dose ([3]; LPS dose ≦ 2.5 mg/kg): no significant difference
- Time of peak radioactivity in brain regions ([3]; control animals, followed by rapid washout): ≤ 3 min
- Radiochemical purity (stability of final product) [4]: more than 99%
Structure (SMILES): CC(=O)N(Cc1ccccc1OCC[18F])c1cnccc1Oc1ccccc1 [[^18F]FEPPA, [^18F]-N-(2-(2-fluoroethoxy)benzyl)-N-(4-phenoxypyridin-3-yl) acetamide]
- Parent fraction of unmetabolized [^18F]FEPPA in the brain (intact form) ([1]; 30 min after injection): approximately 95%
- Metabolite in plasma ([1]; 30 min imaging time-window): 60%
- Affinity relative to [^11C]PK-11195 [5]: 18 fold
